Laboratory results published in the supplement of paper PMC10307832.

Legend:
Test in all cases: relative viability (nuclei count vs DMSO), 5 days (fraction); higher = more cells survive
Dinaciclib = compound: CCc1cnn2c(NCc3ccc[n+]([O-])c3)cc(N3CCCC[C@H]3CCO)nc12 [Dinaciclib]
Outline: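 On vehicle-anchored 1536-well plates, lung cancer cell lines held overnight at 37 °C were pinned with five library-drug doses (not always all listed) spaced by √10. With no medium change over 5 days, they were then fixed, permeabilised and Hoechst-stained in one step and imaged at 4×. MetaXpress counted nuclei, and viability is the median across plates of treated-well over vehicle-well nuclei. Acceptance needed control CV below 25% and at least one doubling.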

Dinaciclib + Trametinib = compound: CCc1cnn2c(NCc3ccc[n+]([O-])c3)cc(N3CCCC[C@H]3CCO)nc12 [Dinaciclib] + CC(=O)Nc1cccc(-n2c(=O)n(C3CC3)c(=O)c3c(Nc4ccc(I)cc4F)n(C)c(=O)c(C)c32)c1 [Trametinib] (partner 0.02 µM)
Outline: (§1)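 The day after seeding in 1536-well plates, lung cancer cell lines were treated by pin tool with a single drug, or with a fixed anchor-drug dose together with five library-drug doses (not always all listed) in √10 steps. After 5 days, a combined fix-and-stain solution (final 0.05% Triton X-100, 1% formaldehyde, 1 ug/ml Hoechst) was added. Nuclei counted on 4× images gave relative viability as treated counts over vehicle counts, reported as the median of duplicate plates.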

Dinaciclib + Lapatinib = compound: CCc1cnn2c(NCc3ccc[n+]([O-])c3)cc(N3CCCC[C@H]3CCO)nc12 [Dinaciclib] + CS(=O)(=O)CCNCc1ccc(-c2ccc3ncnc(Nc4ccc(OCc5cccc(F)c5)c(Cl)c4)c3c2)o1 [Lapatinib] (partner 2 µM)
Outline: as §1

Dinaciclib + AZD7762 = compound: CCc1cnn2c(NCc3ccc[n+]([O-])c3)cc(N3CCCC[C@H]3CCO)nc12 [Dinaciclib] + NC(=O)Nc1cc(-c2cccc(F)c2)sc1C(=O)N[C@H]1CCCNC1 [AZD7762] (partner 0.2 µM)
Outline: as §1

Dinaciclib + Vorinostat = compound: CCc1cnn2c(NCc3ccc[n+]([O-])c3)cc(N3CCCC[C@H]3CCO)nc12 [Dinaciclib] + O=C(CCCCCCC(=O)Nc1ccccc1)NO [Vorinostat] (partner 1 µM)
Outline: as §1

Cell Line	relative viability (Dinaciclib; 0.009487 µM)	relative viability (Dinaciclib; 0.03 µM)	relative viability (Dinaciclib; 0.09487 µM)	relative viability (Dinaciclib; 0.3 µM)	relative viability (Dinaciclib + Trametinib; first compound 0.009487 µM)	relative viability (Dinaciclib + Trametinib; first compound 0.03 µM)	relative viability (Dinaciclib + Trametinib; first compound 0.09487 µM)	relative viability (Dinaciclib + Trametinib; first compound 0.3 µM)	relative viability (Dinaciclib + Lapatinib; first compound 0.009487 µM)	relative viability (Dinaciclib + Lapatinib; first compound 0.03 µM)	relative viability (Dinaciclib + Lapatinib; first compound 0.09487 µM)	relative viability (Dinaciclib + Lapatinib; first compound 0.3 µM)	relative viability (Dinaciclib + AZD7762; first compound 0.009487 µM)	relative viability (Dinaciclib + AZD7762; first compound 0.03 µM)	relative viability (Dinaciclib + AZD7762; first compound 0.09487 µM)	relative viability (Dinaciclib + AZD7762; first compound 0.3 µM)	relative viability (Dinaciclib + Vorinostat; first compound 0.009487 µM)	relative viability (Dinaciclib + Vorinostat; first compound 0.03 µM)	relative viability (Dinaciclib + Vorinostat; first compound 0.09487 µM)	relative viability (Dinaciclib + Vorinostat; first compound 0.3 µM)
NCI-H1975	0.969	0.442	0.164	0.144	0.343	0.187	0.134	0.0985	0.561	0.129	0.107	0.133	0.957	0.421	0.22	0.215	0.677	0.39	0.144	0.15
NCI-H647	0.713	0.0972	0.0714	0.0765	0.379	0.192	0.0855	0.0533	0.31	0.0588	0.0482	0.0727	0.274	0.0458	0.0377	0.0491	0.494	0.079	0.0693	0.0788
A-427	0.828	0.144	0.084	0.0857	0.624	0.117	0.109	0.115	0.949	0.291	0.0989	0.0767	0.75	0.161	0.117	0.102	0.699	0.216	0.111	0.117
LXF-289	1.07	0.924	0.134	0.101	0.682	0.307	0.0823	0.103	0.926	0.167	0.106	0.0884	1.18	0.453	0.0752	0.0836	0.813	0.257	0.0809	0.0855
NCI-H727	0.975	0.411	0.222	0.245	0.39	0.324	0.324	0.392	0.644	0.238	0.222	0.228	0.716	0.413	0.356	0.34	1.33	1.15	0.362	0.312
NCI-H1437	0.894	0.227	0.17	0.154	0.403	0.212	0.134	0.135	0.637	0.115	0.0859	0.0933	1.12	0.16	0.182	0.163	0.87	0.183	0.181	0.177
RERF-LC-KJ	1.01	0.29	0.176	0.156	0.753	0.22	0.143	0.152	0.958	0.563	0.151	0.128	1.04	0.498	0.114	0.155	0.652	0.373	0.141	0.135
HCC-44	0.973	0.443	0.176	0.147	1.13	0.846	0.343	0.339	0.921	0.144	0.134	0.135	0.999	1.05	0.351	0.327	1.24	1.04	0.368	0.319
EPLC-272H	0.855	0.0817	0.0396	0.0347	0.223	0.0654	0.0408	0.056	1	0.104	0.0545	0.051	0.444	0.0986	0.0404	0.0369	0.242	0.0369	0.0282	0.0401
NCI-H358	0.785	0.153	0.104	0.131	0.109	0.0821	0.0838	0.102	0.341	0.216	0.196	0.188	0.548	0.16	0.151	0.188	0.339	0.0713	0.0813	0.0842
NCI-H596	0.977	0.846	0.261	0.18	0.711	0.692	0.19	0.19	0.943	0.341	0.187	0.16	1.09	0.479	0.262	0.24	0.629	0.613	0.252	0.158
NCI-H322M	0.721	0.333	0.289	0.258	0.623	0.36	0.341	0.391	0.637	0.325	0.243	0.201	0.613	0.409	0.42	0.394	0.898	0.396	0.347	0.399
